Key:
[1] = Liver microsomes study, Phase I stability (RLM); type: in vitro ADME, rat; conditions: pH 7.4; rat liver microsomes 0.5 mg/mL, 1 μM test article; read-out: RLM Clint
Procedure, shortened: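 Phase I turnover was followed by LC/MS/MS of parent compound remaining at 0, 10, 30 and 90 min in NADPH-fortified rat or human microsomes, with cold acetonitrile quench. Half-life and intrinsic clearance were derived from the log-linear depletion slope and the inverse protein concentration.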

[2] = target: T1, CYP3A4 (Homo sapiens, UniProt P08684); assay: CYPs inhibition in pooled human liver microsomes, probe substrate Midazolam; type: in vitro ADME
T1 construct: 0.2 mg/mL human liver microsomes was pre-incubated in 180 μL reaction mixture; from tissue; host or cells: pooled human liver microsomes
Procedure, shortened: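 Test articles pre-incubated 10 min at 37 °C with a probe-substrate cocktail in pooled human liver microsomes. Reaction then started with NADPH and run 10 min. Metabolites quantified by LC-MS/MS; IC50 from 3-parameter logistic fit of % control activity.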

[3] = target: T2, FLT3D835Y (Homo sapiens, UniProt P36888, D835Y); assay: FLT3D835Y microfluidic kinase assay; type: biochemical
T2 construct: purchased Carna Biosciences
T2 sequence (P36888 27-993 D835Y): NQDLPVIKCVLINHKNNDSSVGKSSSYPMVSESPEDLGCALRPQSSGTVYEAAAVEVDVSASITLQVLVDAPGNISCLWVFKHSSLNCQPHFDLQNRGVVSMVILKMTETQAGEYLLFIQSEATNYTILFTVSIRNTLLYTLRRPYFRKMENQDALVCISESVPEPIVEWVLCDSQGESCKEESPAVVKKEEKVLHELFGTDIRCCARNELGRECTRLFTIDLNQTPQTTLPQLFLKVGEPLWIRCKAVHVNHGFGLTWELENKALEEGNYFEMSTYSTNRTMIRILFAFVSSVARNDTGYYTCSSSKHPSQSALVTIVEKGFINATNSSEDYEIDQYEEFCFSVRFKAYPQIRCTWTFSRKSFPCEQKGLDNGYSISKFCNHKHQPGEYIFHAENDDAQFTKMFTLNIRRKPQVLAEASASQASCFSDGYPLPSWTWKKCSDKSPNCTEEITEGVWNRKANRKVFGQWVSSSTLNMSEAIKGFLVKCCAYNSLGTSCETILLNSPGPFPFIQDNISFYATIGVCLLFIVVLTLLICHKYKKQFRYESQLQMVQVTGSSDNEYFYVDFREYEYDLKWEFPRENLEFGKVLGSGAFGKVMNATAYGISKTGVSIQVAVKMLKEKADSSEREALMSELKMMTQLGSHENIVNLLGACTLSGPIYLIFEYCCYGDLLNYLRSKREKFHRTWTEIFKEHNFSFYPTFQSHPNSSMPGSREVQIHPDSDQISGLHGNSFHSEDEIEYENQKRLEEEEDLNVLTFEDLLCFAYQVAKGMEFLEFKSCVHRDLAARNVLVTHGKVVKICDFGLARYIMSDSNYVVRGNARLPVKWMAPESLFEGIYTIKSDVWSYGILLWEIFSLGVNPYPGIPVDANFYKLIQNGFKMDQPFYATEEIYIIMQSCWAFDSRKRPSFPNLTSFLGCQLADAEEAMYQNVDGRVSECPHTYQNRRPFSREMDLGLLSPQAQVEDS
Protocol: Compounds were tested against FLT3, FLT3ITD and FLT3D835Y.
Assay Formats: FLT3 activity was determined in the reaction buffer 50 mM HEPES, 10 mM MgCl2 and 2 mM DTT by a microfluidic assay. The phosphorylation of a FAM labeled peptide substrate was monitored in the Caliper EZ Reader II (Perkin Elmer). The assay condition for each batch of enzyme (Carna Biosciences) was optimized to obtain 10% conversion rate of peptide substrate.
The test compounds were dissolved in DMSO to a stock concentration of 10 mM. 3-fold serially diluted compounds with top concentration of 5 μM were pre-incubated with FLT3, FLT3ITD or FLT3D835Y for 10 min at ambient temperature. The final DMSO concentration of assay mixture was 1%. […] The reaction was stopped by adding 50 mM EITA. The reaction time for FLT3, FLT3ITD and FLT3D8335Y was 30 min, 40 min and 40 min, respectively.
And the well without compound but with equivalent DMSO was defined as no inhibition. The percent inhibition was calculated by the following formula. % Inhibition=(Conversionmax−Conversionsample)/(Conversionmax−Conversionmin)*100 • Conversionmax means the conversion rate in the positive well without addition of compound • Conversionmin means the conversion rate in the well without addition of enzyme • Conversionsample means the conversion rate of test compounds
The dose-response (percent inhibition) curve was plotted and IC50 values were determined by GraphPad software.

T1 sequence (P08684 whole entry): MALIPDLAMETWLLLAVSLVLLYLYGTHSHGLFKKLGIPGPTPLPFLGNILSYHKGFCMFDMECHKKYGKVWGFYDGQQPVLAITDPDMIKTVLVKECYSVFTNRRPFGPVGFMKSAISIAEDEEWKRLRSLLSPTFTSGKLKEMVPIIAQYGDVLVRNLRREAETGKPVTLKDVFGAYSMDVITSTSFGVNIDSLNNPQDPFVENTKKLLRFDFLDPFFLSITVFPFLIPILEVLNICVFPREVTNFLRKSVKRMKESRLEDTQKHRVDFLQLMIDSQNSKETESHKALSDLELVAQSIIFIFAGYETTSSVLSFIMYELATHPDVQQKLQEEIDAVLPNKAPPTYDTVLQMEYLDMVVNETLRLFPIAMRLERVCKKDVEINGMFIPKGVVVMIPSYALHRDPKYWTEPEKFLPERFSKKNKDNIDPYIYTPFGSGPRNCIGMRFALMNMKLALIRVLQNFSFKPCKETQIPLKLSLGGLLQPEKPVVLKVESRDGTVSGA

Row | SMILES | microsomal CLint at 1 μM [1] | IC50 [2] | IC50 [3]
1 | CC[C@@H](C#N)NC(=O)c1ccc(-c2nc(Nc3cnn(C4CC4)c3)ncc2Cl)cc1 [Example 61, (S)-4-(5-chloro-2-((1-cyclopropyl-1H-pyrazol-4-yl)amino)pyrimidin-4-yl)-N-(1-cyanopropyl)benzamide] |  |  | 0.0115 µM
2 | Cc1cnc(Nc2cnn(C3CCN(C(=O)CO)CC3)c2)nc1-c1ccc(C(=O)N[C@@H](C)C#N)cc1 [Example 119, (S)—N-(1-cyanoethyl)-4-(2-((1-(1-(2-hydroxyacetyl)piperidin-4-yl)-1H-pyrazol-4-yl)amino)-5-methylpyrimidin-4-yl)benzamide] |  | > 50 µM | 
3 | C[C@@H](C#N)NC(=O)c1ccc(-c2nc(Nc3cnn(C4CCN(C)CC4)c3)ncc2Cl)cc1 [Example 43, (S)-4-(5-Chloro-2-((1-(1-methylpiperidin-4-yl)-1H-pyrazol-4-yl)amino)pyrimidin-4-yl)-N-(1-cyanoethyl)benzamide] | 101 µL/min/mg | > 50 µM | 
4 | Cc1cnc(Nc2cnn(C3CC(C)(C)OC(C)(C)C3)c2)nc1-c1ccc(C(=O)NCC#N)cc1 [Example 113, N-(cyanomethyl)-4-(5-methyl-2-((1-(2,2,6,6-tetramethyltetrahydro-2H-pyran-4-yl)-1H-pyrazol-4-yl)amino)pyrimidin-4-yl)benzamide] | 73.9 µL/min/mg | 19.6 µM | 
5 | N#CCNC(=O)c1ccc(-c2nc(Nc3cnn(C4CC4)c3)ncc2Cl)cc1 [Example 95, 4-(5-Chloro-2-((1-cyclopropyl-1H-pyrazol-4-yl)amino)pyrimidin-4-yl)-N-(cyanomethyl)benzamide] | 31.1 µL/min/mg |  | 
6 | C[C@@H](C#N)NC(=O)c1ccc(-c2nc(Nc3cnn(C4CC4)c3)ncc2Cl)cc1 [Example 111, (S)-4-(5-Chloro-2-((1-cyclopropyl-1H-pyrazol-4-yl)amino)pyrimidin-4-yl)-N-(1-cyanoethyl)benzamide] |  |  | 0.0119 µM
7 | Cn1cc(Nc2ncc(Cl)c(-c3ccc(C(=O)NCC#N)cc3)n2)cn1 [Example 34, 4-(5-Chloro-2-((1-methyl-1H-pyrazol-4-yl)amino)pyrimidin-4-yl)-N-(cyanomethyl)benzamide] | 31.6 µL/min/mg |  | 0.0155 µM
8 | Cc1cnc(Nc2cnn(CC#N)c2)nc1-c1ccc(C(=O)NCC#N)cc1 [Example 4, N-(Cyanomethyl)-4-(2-((1-(cyanomethyl)-1H-pyrazol-4-yl)amino)-5-methylpyrimidin-4-yl)benzamide] | 16.4 µL/min/mg | > 50 µM | 
9 | C[C@@H](C#N)NC(=O)c1ccc(-c2nc(Nc3cnn(C)c3)ncc2Cl)cc1 [Example 125, (S)-4-(5-chloro-2-((1-methyl-1H-pyrazol-4-yl)amino)pyrimidin-4-yl)-N-(1-cyanoethyl)benzamide] | 28.4 µL/min/mg |  | 0.0438 µM
10 | CNC(=O)c1ccc(-c2nc(Nc3cnn(C)c3)ncc2C)cc1 [Example 10, N-Methyl-4-(5-methyl-2-((1-methyl-1H-pyrazol-4-yl)amino)pyrimidin-4-yl)benzamide] |  |  | 2.04 µM

Now from value to molecule:

Row | microsomal CLint at 1 μM [1] | IC50 [2] | IC50 [3] | SMILES
11 | 18.9 µL/min/mg | 18.2 µM |  | CC[C@@H](C#N)NC(=O)c1ccc(-c2nc(Nc3cnn(C4CCNCC4)c3)ncc2Cl)cc1 [Example 183, (S)-4-(5-chloro-2-((1-(piperidin-4-yl)-1H-pyrazol-4-yl)amino)pyrimidin-4-yl)-N-(1-cyanopropyl)benzamide]
12 | 26 µL/min/mg | 41.5 µM |  | C[C@@H](C#N)NC(=O)c1ccc(-c2nc(Nc3cnn(C4CCNCC4)c3)ncc2Cl)cc1 [Example 165, (S)-4-(5-chloro-2-((1-(piperidin-4-yl)-1H-pyrazol-4-yl)amino)pyrimidin-4-yl)-N-(1-cyanoethyl)benzamide]
13 |  |  | 2.83 µM | Cc1cnc(Nc2cnn(C)c2)nc1-c1ccc(C(=O)NC(C)C)cc1 [Example 223, N-isopropyl-4-(5-methyl-2-((1-methyl-1H-pyrazol-4-yl)amino)pyrimidin-4-yl)benzamide]
14 | 78.5 µL/min/mg | > 50 µM |  | CC[C@@H](C#N)NC(=O)c1ccc(-c2nc(Nc3cnn(C4CCN(C)CC4)c3)ncc2C)cc1 [Example 184, (S)—N-(1-Cyanopropyl)-4-(5-methyl-2-((1-(1-methylpiperidin-4-yl)-1H-pyrazol-4-yl)amino)pyrimidin-4-yl)benzamide]
15 |  |  | 4.32 µM | CCNC(=O)c1ccc(-c2nc(Nc3cnn(C)c3)ncc2C)cc1 [Example 222, N-ethyl-4-(5-methyl-2-((1-methyl-1H-pyrazol-4-yl)amino)pyrimidin-4-yl)benzamide]

Reference: patent US12595253B2, “Benzamides of pyrazolylamino-pyrimidinyl derivatives, and compositions and methods thereof” (LYNK PHARMACEUTICALS CO. LTD., priority 2019, dated 2026)
